Entries after “also recorded” stand apart in the source; their conditions may differ. Residues, ends and D or L forms follow the SMILES beside them. No end group written: not given here. *: point of attachment. Hexanoyl(6-Ph) = O=C(CCCCCc1ccccc1)*
Columns and labels:
[1] = test system: virgin females of Heliothis virescens; experiment: Pheromonotropic assay (topical application); type: in vivo; conditions: for pheromone production, topical 500 pmol/female in 80% acetonitrile: 80% acetonitrile in water; for pheromone production, topical 500 pmol/female in 80% acetonitrile / pheromone production, topical 500 pmol/female in DMSO / pheromone production, topical 500 pmol/female in water: FIG. 7; for pheromone production after topical application in DMSO: descaled cuticle
Method: The amphiphilic carboranyl analog Cbe--Thr--Pro--Arg--Leu--NH2 was dissolved in water and solutions at concentrations of 5, 10, 25, 60, and 200 pmol/μl were prepared. The cuticular scales along the lateral side of the abdomen were removed with a 1 ml plastic pipet tip attached to house vacuum with a rubber hose. A low vacuum was applied to the apparatus and the pipet tip was gently passed over the cuticle until the scales were drawn by suction. After the scales were removed, 1 μl of peptide solution was applied to the surface of the cuticle and smoothed evenly over the prepared surface. […]
Pupae of Heliothis virescens were obtained from a laboratory colony maintained at the Insect Attractants Behavior and Basic Biology Research Laboratory, USDA-ARS, Gainesville, Fla. The pupae were separated by sex and the females were held in 4-1 cages. Cages were inspected daily for newly eclosed adults which were transferred to new cages and provided with cotton wicks soaked with a 5% sucrose solution. The insects were held at 25°[…] C. and 65%±3% relative humidity with a 12:12 (L:D) photoperiod. Virgin females were used for bioassays 2 and 3 days after eclosion during the 7th-8th hour of the photophase when little or no pheromone is present in the gland (Teal et al., 1993, Can. Entomol., 153:355-366). The cuticular scales were removed from the lateral side of the abdomen using a plastic pipet tip attached to house vacuum using a rubber hose. A low vacuum was applied and the pipet tip was passed gently over the cuticle until the scales were drawn off by suction. Insects were returned to the incubator for 24 h after the scales were removed for most experiments. However, insects were not given a recovery period in studies in which peptides were applied in DMSO (see below).
In initial studies we used dimethyl sulfoxide (DMSO) as a carrier to deliver Hez--PBAN or [6--Pha--Ala^0 ]Lom--MT--II for topical applications. […] We also assessed different carrier solvents for their ability to deliver these two peptides. Peptides were dissolved at a concentration of 500 pmol/μl in: DMSO, water, or 80% acetonitrile:20% water. Solutions were applied to the descaled abdomen in 1 μl of solvent as above. The insects were allowed to incubate for 1 h prior to excision and extraction of the pheromone gland. Extracts were analyzed for the amount of pheromone as above.
The use of water as a carrier for [6--Pha--Ala^0 ]Lom--MT--II was also assessed in dose response and temporal activity studies. For dose response studies [6--Pha--Ala^0 ]Lom--MT--II was dissolved in water at concentrations of 5, 10, 25, 50, 75, 100, 250, 500, 750 and 1000 pmol/μl. Insects were incubated for 60 min after application of 1 μl of solution to the descaled abdomen. In temporal activity studies a 100 pmol/μl dose was selected. For these experiments insects were incubated for periods of 15, 30, 60, 120, or 180 min after application of 1 μl of solution to the descaled abdomen. The ability of the parent peptide, Lom--MT--II, to stimulate pheromone production when applied topically in water was assessed by applying doses of 50, 100, 250 and 500 pmol to the abdomen. Control treatments for this experiment included insects treated with only water and females treated by topical application of 100 pmol of [6--Pha--Ala^0 ]Lom--MT--II. After incubation the sex pheromone glands were excised, extracted and analyzed for the amount of pheromone.

[2] = test system: virgin females of Heliothis virescens; experiment: Pheromonotropic assay (injection); type: in vivo; conditions: 0.06-200 pmol, 60 min after injection, FIG. 5
Method: Pupae of H. virescens were obtained from a laboratory colony maintained at the Insect Attractants, Behavior and Basic Biology Research Laboratory, USDA-ARS, in Gainesville, Fla. The pupae were separated by sex and the males were discarded. After eclosion, the females were held in 4-1 cages and provided with cotton wicks soaked with 5% sucrose solution. The insects were held at 25°±2° C, 65±3% relative humidity with a 12:12 (L:D) photoperiod. Virgin females were used for bioassays 2 and 3 days after eclosion during the 7th-8th hour of the photophase when endogenous levels of pheromone are very low (Abernathy, 1995, Regulation of sex pheromone production and oviposition in virgin females of noctuid moths, doctoral dissertation, University of Florida, Gainesville, Fla., pp. 1-107).
Pheromone biosynthesis neuropeptide from H. zea (Hez--PBAN) and the carboranyl pseudopeptide Cbe--Thr--Pro--Arg--Leu--NH2 were dissolved in physiological saline (Christensen et al., 1991, Proc. Natl. Acad. Sci. USA, 88:4971-4975). Female H. virescens insects were injected through the side of the third abdominal segment using a 26-ga needle with 20 μl of the above solutions. Each female received a dose of 0.01, 0.03, 0.1, 0.3, 1, 3, 10, 30, 100 or 300 pmol. After 1 h of incubation, the terminal abdominal segments, which contain the pheromone gland, were excised and placed in 10 μl of hexane containing 10 ng each of internal standards (octadecane and nonadecane) used for quantitation and calculation of relative retention indices. The pheromone gland extracts were analyzed for the amount of (Z)-11-hexadecenal (Z11-16:AL), the major sex pheromone component of H. virescens (Klun et al., 1980, J. Chem. Ecol., 6:165-175) by capillary gas chromatography. Hewlett-Packard 5890 gas chromatographs were equipped with splitless injectors, flame ionization detectors, and 30 m×0.25 mm (i.d.) fused silica "SPB 10" (polar) or "SPB1" (apolar) columns (Supelco). Conditions of chromatography were as follows: initial temperature=60° C.; injector operated in the splitless mode for 0.5 min; oven temperature increased by 30° C./min after 1 min; final temperature=190° C. ("SPB10") or 200° C. ("SPB1"); helium carrier gas at a linear flow velocity of 18 cm/s. A Nelson Analytical 3000° acquisition system (Cupertino, Calif.) was used to collect and analyze the data (Teal et al., 1989, Proc. Natl. Acad. Sci. USA, 86:2488-2492).
After the dose response of Hez--PBAN was completed, the […] dose was chosen to use for comparison with the carboranyl pseudopeptide assayed here. Insects were also injected with saline alone as a control. The pseudopeptide was prepared by dilution with saline as described above. Based on the dose-response for the activity of Hez--PBAN, […] were chosen to assess the pheromonotropic activity of the carboranyl pseudopeptide. Females were injected with 20 μl containing 0.01, 0.03, 0.1, 0.3, 1, 3, 10, 30, 100, or 300 pmol. Each bioassay consisted of one dose of several different peptides along with saline and Hez--PBAN controls. The amount of pheromone present in extracts of the pheromone glands of females from each group was compared with that produced by females injected with 5 pmol of Hez--PBAN during that particular bioassay. After all the bioassays were completed, the amount of pheromone produced by each insect was calculated as a percentage of the amount of pheromone produced by females treated with Hez--PBAN. Data were analyzed using one-way ANOVA and t-test with "STATVIEW" software. Variability was reported as SEM.
The pheromonotropic activity of Hez--PBAN, Lom--MT--II and [6--Pha--Ala^0 ]Lom--MT--II was first determined by a series of injection bioassays. Peptides were dissolved in physiological saline (Christensen et al., ibid) and diluted to concentrations of 0.003, 0.01, 0.03, 0.1, 0.3, 1.0, 3.0 and 10.0 pmol/μl. Insects were injected through the side of the 3rd abdominal segment using a 26 ga. needle with 20 μl of the above solutions. […]

[3] = test system: corn earworm moth H. zea; conditions: cited from earlier work
[4] = test system: isolated cockroach (Leucophaea maderae) hindgut; conditions: values printed with reference numbers; cited from earlier work
[5] = test system: isolated cockroach (Leucophaea maderae) hindgut; experiment: Cockroach myotropic bioassay (isolated hindgut); type: cell-based; conditions: isolated hindgut, FIG. 2; listed as LPK
Method: Leucophaea maderae cockroaches were taken from stock colonies maintained at 27° C. and fed dry dog food ad lib. Cockroach hindguts, free of central nervous system (CNS) tissue, were dissected, immersed in saline, and prepared for recording of myogenic activity as previously described (Holman et al., 1991, ibid). Threshold concentrations were determined for each analogue by adding a known quantity of peptide (dissolved in 0.5 ml bioassay saline) to the bioassay chamber containing the hindgut and observing the response on a Gould 2200S oscillograph recorder. The quantity of the peptide analogues was calculated from the values obtained for Phe and/or Leu in the amino acid analysis. The threshold concentration was defined as the minimum concentration of peptide in the chamber required to evoke an observable change in the frequency (50%) or amplitude of contractions (5%) within 1 min and sustained for 3 min. Threshold concentrations were obtained from five cockroach hindguts on 5 consecutive days for each peptide. Quantitative data for dose-response plots were obtained as previously described (Holman et al., 1991, ibid).

[6] = cited from earlier work
[7] = test system: virgin females of Heliothis virescens; conditions: H. virescens, printed with reference number; cited from earlier work
[8] = test system: virgin females of Heliothis virescens; conditions: 100 pmole dose, cited from earlier work
[9] = aqueous solution, 15 min to 3 hr

CC(C)C[C@H](NC(=O)[C@H](CCCNC(=N)N)NC(=O)[C@@H]1CCCN1C(=O)[C@@H](NC(=O)[C@H](Cc1ccccc1)NC(=O)[C@H](CC(=O)O)NC(=O)CNC(=O)[C@H](CCC(=O)O)NC(=O)[C@H](C)NC(=O)CCCCCc1ccccc1)[C@@H](C)O)C(N)=O [[6--Pha--Ala^0]Lom--MT--II] ({Hexanoyl(6-Ph)}-AEGDFTPRL-NH2)
time after application at which gland extracts contained significant amounts of pheromone ([1]; 100 pmol in water, FIG. 9): ≤ 15 min | time of maximal activity after application ([1]; 100 pmol in water, FIG. 9): 60 min | pheromone production, topical 500 pmol/female in 80% acetonitrile ([1]; 60 min): significant amounts of pheromone; also recorded: induced the production of pheromone | response to topical application of 5 and 10 pmol doses in DMSO ([1]; DMSO carrier, 60 min, FIG. 6): produced pheromone | amount of pheromone at 100 to 1000 pmol/female, topical in DMSO ([1]; DMSO carrier, FIG. 6): equivalent amounts of pheromone | pheromone production after topical application in DMSO ([1]; DMSO carrier): produced pheromone; also recorded: effective in stimulating pheromone production | pheromone production, topical 500 pmol/female in DMSO ([1]; 60 min): equivalent amounts of pheromone | concentration giving maximal pheromone stimulation, topical application ([1]; topically applied): 100 picomoles/insect | dose up to which activity increased in a linear fashion (100-1000 pmol not different) ([1]; water carrier, 60 min, FIG. 8): 100 pmol | doses stimulating significantly more pheromone than just water, topical in water ([1]; water carrier, 60 min, FIG. 8): ≥ 10 pmol | pheromone production, topical 500 pmol/female in water ([1]; 60 min): significant amounts of pheromone | pheromonotropic activity of injected peptide, compared [2]: reduced the activity, compared to Lom--MT--II, at doses up to 6 pmol; also recorded: equivalent to Hez--PBAN at all other doses | pheromonotropic activity of injected peptide, compared ([2]; listed as [6--Pha--Ala^0]Lom--MT--II): pheromonotropic activity equivalent to Hez--PBAN

pQTSPhe--Thr--Pro--Arg--Leu--NH2 (pQTS-FTPRL-NH2) [octapeptide leucopyrokinin of the cockroach Leucophaea maderae, reference compound]
Maximal Response via injection (dose) ([3]; data from H. zea): 70 pmol | ED50, pheromone production via injection ([3]; data from the related corn earworm moth H. zea): 5 pmol | Threshold Concentration, myostimulation of the isolated cockroach hindgut [4]: 650 pM | reversibility of myostimulatory response by saline rinse [5]: immediately reversed by a saline rinse; also recorded: immediately vanished following a saline rinse; also recorded: subsides immediately following a saline rinse

proctolin
fate of ingested peptide in the gut ([6]; in vivo): rendered inactive in the gut

LSDDMPATPADQEMYRQDPEQIDSRTKYFSPRL-NH2 [HezPBAN, reference compound]
share of orally administered peptide entering the hemolymph through the gut wall ([6]; oral administration): approximately 5% | Threshold Concentration, myostimulation of the isolated cockroach hindgut [4]: 2,600 pM | ED50, pheromone production via injection [7]: 1.0 pmol | Maximal Response via injection (dose) [7]: 5.0 pmol | pheromone versus water-only controls, time course, topical in water ([1]; 100 pmol in water, 15-180 min, FIG. 9): no different from controls at any time interval; also recorded: did not contain more pheromone than was present in extracts obtained from insects treated with water only | pheromone production, topical 500 pmol/female in 80% acetonitrile ([1]; 60 min): no significant activity | amount required to stimulate significant pheromone production relative to [6--Pha--Ala^0 ]Lom--MT--II ([1]; DMSO carrier): ten fold more | dose from which pheromone is produced, topical in DMSO ([1]; DMSO carrier, 60 min, FIG. 6): 50 pmol/female | amount of pheromone at 100 to 1000 pmol/female, topical in DMSO ([1]; DMSO carrier, FIG. 6): equivalent amounts of pheromone | pheromone production after topical application in DMSO ([1]; DMSO carrier): produced pheromone; also recorded: effective in stimulating pheromone production | pheromone production, topical 500 pmol/female in DMSO ([1]; 60 min): equivalent amounts of pheromone | pheromone production when applied to the surface of the cuticle in water ([1]; water carrier): failed to stimulate production of significant amounts of pheromone | pheromone production, topical 500 pmol/female in water ([1]; 60 min): no significant activity | pheromone production over control group after topical aqueous application ([8]; 15 min, 1 hr, 2 hr, 3 hr following treatment, listed as PBAN): does not lead to production of statistically different levels of pheromone production | ED50, pheromone production via topical application [8, 9]: Inactive | Maximal Response via topical application [8, 9]: Inactive

From patent US5795857A, “Mimetic insect pyrokinin analogs for insect control” (The United States of America as represented by the …, priority 1996, dated 1998)
